# Patent publication US10889553B2, “Asymmetric triazole benzamide derivatives and the compositions and methods of treatment regarding the same” (NysnoBio Ireland DAC, priority 2017, dated 2021)
# Several values for one entry are separate records, joined by “and”; a condition that tells them apart may be missing. Equal entries are not always repeated.
# System: TOV-21G (ovarian)
# Assay: Cancer cell proliferation assay (acid phosphatase)
# Format: cell-based
# Conditions: Homo sapiens, TOV21G, 72 h, Table 6A; 72 hrs; read-out: TOV-21G IC50
# Experimental: Measurement of the inhibitive effect of compounds on cancer cell proliferation was performed. Various cell lines were tested, including HCT-116 (colon); A549 (lung); TOV-21G (ovarian); Calu-6 (lung); and LS-174T (colon); and cell lines H1703 (Lung) and SKOV3 (ovarian); JEKO-1 (lymophoma); TOV-112D (ovarian) are tested. The assays were performed under the following conditions: Cells are harvested at a concentration of 4×10^4 cells/ml in media. Volumes of 100 μl/well of these cell suspensions were added to a 96 well plate using a multichannel pipette. Plates were gently agitated to ensure an even dispersion of cells over a given plate. Cells were then incubated at 37° C., 5% CO2 overnight. Following this, 100 μl of compound at varying concentrations was added to wells in triplicate. Control wells are those with 100 μl media containing 0.33% DMSO added to cell suspension (this is the equivalent volume of DMSO found in the highest concentration of drug). Plates were then gently agitated, as above, and incubated at 37° C., 5% CO2 for 72 hrs (control wells have reached 80-90% confluency). Assessment of cell proliferation in the presence of the compound was determined by the acid phosphatase assay.
# Following the incubation period of 72 hrs, media was removed from the plates. Each well on the plate was washed twice with 100 μl PBS. This was then removed and 100 μl of freshly prepared phosphatase substrate (10 mM p-nitrophenol phosphate in 0.1M sodium acetate, 0.1% triton X-100, pH 5.5) was added to each well. The plates were then incubated in the dark at 37° C. for 2 hours. Colour development was monitored during this time. The enzymatic reaction was stopped by the addition of 50 μl of 1N NaOH. The plate was read in a dual beam plate reader at 405 nm with a reference wavelength of 620 nm. The absorbance reading of the latter is subtracted from the former, and the effect of the drug on cell proliferation was then measured as a percentage against the control cells (DMSO), which is taken as 0% inhibition.
row,Structure (SMILES),IC50 [nM]
1,Cc1ccccc1C(=O)Nc1nc(NC(=O)[C@@H]2C[C@H](F)CN2)nn1-c1ccccc1 [Compound 3],2400

# Target: T1, Parkin ligase (Homo sapiens, UniProt O60260)
# T1 sequence (O60260 1-465): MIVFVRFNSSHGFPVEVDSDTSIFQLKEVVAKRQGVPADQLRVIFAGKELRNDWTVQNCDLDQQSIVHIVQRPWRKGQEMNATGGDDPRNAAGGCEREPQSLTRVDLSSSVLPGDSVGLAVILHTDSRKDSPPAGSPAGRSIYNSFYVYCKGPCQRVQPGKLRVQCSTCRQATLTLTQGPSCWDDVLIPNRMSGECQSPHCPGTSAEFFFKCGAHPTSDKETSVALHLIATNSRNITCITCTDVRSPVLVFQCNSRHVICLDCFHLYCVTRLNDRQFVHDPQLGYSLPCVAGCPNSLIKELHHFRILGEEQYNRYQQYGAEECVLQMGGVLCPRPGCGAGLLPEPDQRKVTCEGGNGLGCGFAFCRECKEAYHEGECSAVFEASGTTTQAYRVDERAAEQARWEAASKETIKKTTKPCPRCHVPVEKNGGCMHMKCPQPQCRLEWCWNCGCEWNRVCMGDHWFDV
# Assay: Activity-Based Probe Assay using Ubiquitin vinyl sulfone probe (TR-FRET)
# Format: biochemical
# Conditions: heat activated Parkin, HA-Ub-VS probe, activation EC50; read-out: Probe Assay EC50 (μM) [Example 2]
# Experimental: An Ubiquitin vinyl sulfone probe can be used that irreversibly binds to the active site cysteine of Parkin ligase. Covalent attachment of the probe to the Parkin can be monitored by TR-FRET. Candidate activator compounds can be identified by increasing the activity of Parkin ligase due to an increase in TR-FRET signal. Screening for activating compounds can be distinguished from the controls as follows: 100% activation signal=Heat activated Parkin+100 nM control activator in DMSO. 0% activation signal=Heat activated Parkin+DMSO only. Parkin activators can be identified by an increase of the 0% activation signal TR-FRET signal. Assay Conditions: Materials: • Assay Plate: White 384 well plate (Corning 3572) • Enzyme: Parkin-His tagged 203 μM (10.5 mg/ml) • Probe: Ubiquitin vinyl-sulfone (HA-Ub-VS Boston Biochem U-212) • DMSO: DMSO (Sigma cat #D4540-100ML) • Reaction Buffer: 50 mM HEPES (pH 8.5), 150 mM NaCl, 0.01% Tween 20, 0.1% BSA • Detection Buffer: 50 mM HEPES (pH 8.5), 150 mM NaCl, 0.01% Tween 20, 0.1% BSA, 800 mM KF • Detection Reagent A: 2.6 nM Anti-6HIS-Eu cryptate and 40 nM Anti-HA-XL665 in detection buffer • Eu cryptate: Anti-6HIS-Eu cryptate (CisBio 61HISKLA) • XL665: Anti-HA-XL665 (CisBio 610HAXLA) Enzyme Reaction (15 Min Pre Incubation Parkin with Activator Only) • Parkin: 40 nM • HA-Ub-VS Probe: 70 nM • Activator/DMSO: 2× Activator/2% DMSO Reaction time: 60 minutes Temperature: 22° C. Total volume: 10 μl reaction Detection Reaction Take […] of Enzyme Reaction above and add 10 μl detection Reagent A under the following conditions: • Reaction time: 60 minutes • Temperature: 22° C. • Total volume: 20 μl
# Assay procedure (Using HP D-300 compound dispenser and Bravo for the operation):
# 1) Heat activate Parkin in reaction buffer (500 μl/1.5 ml tube: Eppendorf Thermomixer 5 minutes, 400 rpm at 58° C. and put on ice until needed).
# 2) Load assay plate wells with 4.8 μl 84.5 nM Parkin in reaction buffer by use of Bravo.
# 3) Deliver 0.2 μl 200× activator candidates in DMSO by use of HP D-300 compound dispenser. Highest 200× concentration=[…] and then twofold dilutions.
# 4) Spin 1000 rpm, 2 minutes, at room temp.
# 5) Incubate plate for 15 minutes at room temp.
# 6) Add 5 μl 140 nM HA-Ub-VS Probe in reaction buffer by use of Bravo.
# 7) Spin 1000 rpm, 2 minutes, at room temp.
# 8) Incubate plate for 60 minutes at room temp.
# 9) Add 10 μl 2.6 nM Anti-6HIS-Eu cryptate and 40 nM […] in detection buffer.
# 10) Spin 1000 rpm, 2 minutes, at room temp.
# 11) Incubate plate for 60 minutes at room temp.
# 12) Read plates on Perkin Elmer Envision instrument with the following parameters:
# LANCE dual laser protocol loaded into the Envision® software
# Top Mirror: LANCE/DELFIA Duel/Bias (Bar code 446)
# Emission Filter: APC 665 EM (Bar code 205)
# 2nd Emission Filter: Europium 615 EM (Bar code 203)
# Read 655 nm (channel 1) and 615 nm (channel 2) wavelengths on Envision®
# Data Analysis: The Data can be read in CSV files. There are two tables in those CSV files, which are the values of 655 nm (channel 1) and 615 nm (channel 2) wavelengths respectively. The data is converted to an HTRF Ratio=(Channel 1/Channel 2)*10,000
# The average of all the 0 μM controls (DMSO only)=BKGD (Background—0% activation). Subtract BKGD from each HTRF Ratio value=HTRF−BKGD. The average of all the […] 100 nM control activator in DMSO controls=Max (100% activation). The following equation is then used to calculate % Activation for each well/candidate as follows: % Activation=(HTRF−BKGD/Max)*100.
# Graphpad Prism was used with Transform X values: X=Log(X) and nonlinear regression (dose-response-stimulation): Log(agonist) vs Response−variable slope (four parameters) with constrains set to Bottom=0 and Top=100.
# The Activity-Based Probe Assay was performed with various compounds in Tables 1, 2, 3A and 3B.
row,Structure (SMILES),EC50
1,Cc1ccccc1C(=O)Nc1nc(NC(=O)[C@@H]2C[C@H](F)CN2)nn1-c1ccccc1 [Compound 3],16 µM and > 100 µM
2,Cc1ccccc1C(=O)Nc1nc(NCCc2ccccc2)nn1-c1ccc(C(F)(F)F)cc1 [Compound 103],1 µM
3,Cc1ccccc1C(=O)Nc1nc(NCc2ccccc2)nn1-c1ccc(OC(F)(F)F)cc1 [Compound 105],1 µM
4,Cc1ccccc1C(=O)Nc1nc(NCCc2ccccc2)nn1-c1ccc(OC(F)(F)F)cc1 [Compound 106],> 100 µM
5,COc1ccc(CNc2nc(NC(=O)c3ccccc3C)n(-c3ccc(OC(F)(F)F)cc3)n2)cc1 [Compound 107],1 µM
6,Cc1ccccc1C(=O)Nc1nc(NCCc2ccccc2)nn1-c1ccc(Cl)cc1 [Compound 109],1 µM
7,COc1cccc(CNc2nc(NC(=O)c3ccccc3C)n(-c3ccc(OC(F)(F)F)cc3)n2)c1 [Compound 110],2 µM
8,COc1ccccc1CNc1nc(NC(=O)c2ccccc2C)n(-c2ccc(OC(F)(F)F)cc2)n1 [Compound 111],2 µM
9,Cc1ccccc1C(=O)Nc1nc(NCc2cccc(Cl)c2)nn1-c1ccc(OC(F)(F)F)cc1 [Compound 112],1 µM
10,Cc1ccccc1C(=O)Nc1nc(NCc2ccc(Cl)cc2)nn1-c1ccc(OC(F)(F)F)cc1 [Compound 113],0.8 µM
11,Cc1ccccc1C(=O)Nc1nc(N[C@H](C)c2ccccc2)nn1-c1ccccc1 [Compound 114],2 µM
12,Cc1ccccc1C(=O)Nc1nc(N[C@@H](C)c2ccccc2)nn1-c1ccccc1 [Compound 115],3 µM
13,Cc1ccccc1C(=O)Nc1nc(N[C@@H](C)c2ccccc2)nn1-c1ccc(OC(F)(F)F)cc1 [Compound 117],2 µM
14,Cc1ccccc1C(=O)Nc1nc(N[C@H](C)c2ccccc2)nn1-c1ccc(OC(F)(F)F)cc1 [Compound 118],1 µM
15,Cc1ccccc1C(=O)Nc1nc(NC(=O)c2c(F)cccc2F)nn1-c1ccccc1 [Compound 119],2 µM
16,Cc1ccccc1C(=O)Nc1nc(N[C@@H](C)c2ccccc2)nn1-c1ccc(C(F)(F)F)cc1 [Compound 120],1 µM
17,Cc1ccccc1C(=O)Nc1nc(-c2cn(C)cn2)nn1-c1ccccc1 [Compound 125],> 100 µM
18,Cc1ccccc1C(=O)Nc1nc(-c2cccc[n+]2[O-])nn1-c1ccccc1 [Compound 130],5 µM
19,Cc1ccccc1C(=O)Nc1nc(-c2cscn2)nn1-c1ccccc1 [Compound 135],> 100 µM
20,Cc1ccccc1C(=O)Nc1nc(-c2ncccc2F)nn1-c1ccccc1 [Compound 136],> 100 µM
21,c1ccc(CNc2nc(NCc3ccccc3)n(-c3ccccc3)n2)cc1 [Compound 138],> 100 µM
22,Cc1ccccc1C(=O)Nc1nc(-c2ncccc2C)nn1-c1ccc(OC(F)(F)F)cc1 [Compound 139],0.9 µM
23,Cc1ccccc1C(=O)Nc1nc(-c2cocn2)nn1-c1ccccc1 [Compound 140],> 100 µM
24,Cc1ccccc1C(=O)Nc1nc(-c2ncccc2C)nn1-c1ccc(C(F)(F)F)cc1 [Compound 141],1 µM
25,Cc1ccccc1C(=O)Nc1nc(-c2ncccc2C)nn1-c1ccc(Cl)cc1 [Compound 142],0.3 µM
26,c1ccc(CCNc2nc(NCCc3ccccc3)n(-c3ccccc3)n2)cc1 [Compound 143],> 100 µM
27,c1ccc(-n2nc(NCc3ccccn3)nc2NCc2ccccn2)cc1 [Compound 144],> 100 µM
28,c1ccc(-n2nc(NCCc3ccccn3)nc2NCCc2ccccn2)cc1 [Compound 145],> 100 µM
29,Cn1cnc(-c2nc(N)n(-c3ccccc3)n2)c1 [Compound 147],> 100 µM
30,Cc1ccccc1C(=O)N(C(=O)c1ccccc1)c1nc(N)n(-c2ccccc2)n1 [Compound 148],> 100 µM
